Measured values from US9296704B2, “Substituted pyrimidines as protein kinase inhibitors” (CELGENE AVILOMICS RESEARCH, INC., priority 2007, dated 2016).

Columns and labels:
BTK = BTK (Homo sapiens, UniProt Q06187); experiment: Omnia assay for potency against BTK; type: biochemical; settings: read-out: BTK Inhibition
Source text: (§1) The protocol below describes continuous-read kinase assays to measure inherent potency of compounds against active forms of EGFR (WT) and EGFR (T790M/L858R) enzymes. The mechanics of the assay platform are best described by the vendor (Invitrogen, Carlsbad, Calif.) on their website at the following URL: http://www.invitrogen.com/content.cfm?pageid=11338 or http://www.invitrogen.com/site/us/en/home/Products-and-Services/Applications/Drug-Discovery/Target-and-Lead-Identification-and-Validation/KinaseBiology/KB-Misc/Biochemical-Assays/Omnia-Kinase-Assays.html.
(§2) Briefly, 10× stocks of EGFR-WT (PV3872) from Invitrogen and EGFR-T790M/L858R (40350) from BPS Bioscience, San Diego, Calif., 1.13×ATP (AS001A) and appropriate Tyr-Sox conjugated peptide substrates (KCZI001) were prepared in 1× kinase reaction buffer consisting of 20 mM Tris, pH 7.5, 5 mM MgCl2, 1 mM EGTA, 5 mM β-glycerophosphate, 5% glycerol (10× stock, KB002A) and 0.2 mM DTT (DS001A). 5 μL of each enzyme were pre-incubated in a Corning (#3574) 384-well, white, non-binding surface microtiter plate (Corning, NY) for 30 min. at 27° C. with a 0.5 μL volume of 50% DMSO and serially diluted compounds prepared in 50% DMSO. Kinase reactions were started with the addition of 45 μL of the ATP/Tyr-Sox peptide substrate mix and monitored every 30-90 seconds for 60 minutes at λex360/λem485 in a Synergy^4 plate reader from BioTek (Winooski, Vt.). At the conclusion of each assay, progress curves from each well were examined for linear reaction kinetics and fit statistics (R^2, 95% confidence interval, absolute sum of squares). Initial velocity (0 minutes to ˜30 minutes) from each reaction was determined from the slope of a plot of relative fluorescence units vs time (minutes) and then plotted against inhibitor concentration to estimate IC50 from log [Inhibitor] vs Response, Variable Slope model in GraphPad Prism from GraphPad Software (San Diego, Calif.).
The Omnia Assay Protocol for potency assessment against BTK is performed in a substantially similar manner as that described in Example 25 above except that the modified BTK-optimized reagent conditions are: • [BTK]=5 nM, [ATP]=[…], [Y5-Sox]=[…] (ATP KMapp ˜[…]).

EGFR (WT) = target: T1, EGFR (WT) (Homo sapiens, UniProt P00533); experiment: Omnia continuous-read kinase assay, EGFR (WT); type: biochemical; settings: read-out: EGFR inhibtion
T1 construct: purchased Invitrogen PV3872
T1 sequence (P00533 25-1210): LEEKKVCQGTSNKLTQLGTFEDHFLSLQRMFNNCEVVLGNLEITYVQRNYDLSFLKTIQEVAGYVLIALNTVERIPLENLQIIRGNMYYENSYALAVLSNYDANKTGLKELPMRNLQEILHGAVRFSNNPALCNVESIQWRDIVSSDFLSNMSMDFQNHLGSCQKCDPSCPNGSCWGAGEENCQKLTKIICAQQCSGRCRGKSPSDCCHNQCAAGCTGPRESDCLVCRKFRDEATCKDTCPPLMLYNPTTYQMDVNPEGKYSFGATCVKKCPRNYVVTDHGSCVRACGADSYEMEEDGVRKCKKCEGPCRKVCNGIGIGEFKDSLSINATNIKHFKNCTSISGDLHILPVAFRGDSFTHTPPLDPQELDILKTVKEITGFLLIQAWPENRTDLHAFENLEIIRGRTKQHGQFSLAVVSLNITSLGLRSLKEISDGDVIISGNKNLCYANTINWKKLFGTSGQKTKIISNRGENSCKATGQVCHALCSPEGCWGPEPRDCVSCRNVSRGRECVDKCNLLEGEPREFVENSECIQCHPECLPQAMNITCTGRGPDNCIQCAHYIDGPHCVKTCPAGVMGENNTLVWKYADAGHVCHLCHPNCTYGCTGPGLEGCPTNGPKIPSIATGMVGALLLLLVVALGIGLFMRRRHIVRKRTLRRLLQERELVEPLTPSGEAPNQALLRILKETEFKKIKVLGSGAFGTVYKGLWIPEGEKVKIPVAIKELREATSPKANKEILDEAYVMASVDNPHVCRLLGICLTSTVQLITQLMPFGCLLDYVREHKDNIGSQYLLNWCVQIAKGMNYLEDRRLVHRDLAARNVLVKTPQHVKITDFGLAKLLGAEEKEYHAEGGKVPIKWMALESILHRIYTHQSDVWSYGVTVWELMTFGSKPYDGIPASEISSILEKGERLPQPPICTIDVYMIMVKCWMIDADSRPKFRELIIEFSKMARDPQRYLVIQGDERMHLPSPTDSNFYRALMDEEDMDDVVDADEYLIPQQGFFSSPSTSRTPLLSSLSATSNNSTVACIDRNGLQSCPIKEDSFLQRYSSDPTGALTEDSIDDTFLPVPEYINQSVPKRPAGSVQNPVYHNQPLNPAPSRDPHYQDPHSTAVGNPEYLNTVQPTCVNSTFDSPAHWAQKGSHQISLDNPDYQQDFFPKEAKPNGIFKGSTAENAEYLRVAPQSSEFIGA
Source text: as §1, §2
(§3) The EGFR-WT- and EGFR T790M/L858R-modified optimized reagent conditions are: • [EGFR-WT]=5 nM, [ATP]=[…], [Y12-Sox]=[…]; and [EGFR-T790M/L858R]=3 nM, [ATP]=[…], [Y12-Sox]=[…].

EGFR (T790M/L858R) = target: T2, EGFR (T790M/L858R) (Homo sapiens, UniProt P00533, L858R/T790M); experiment: Omnia continuous-read kinase assay, EGFR (T790M/L858R); type: biochemical; settings: read-out: EGFR (T790M/L858R) inhibiton
T2 construct: purchased BPS Bioscience 40350
T2 sequence (P00533 25-1210 T790M/L858R): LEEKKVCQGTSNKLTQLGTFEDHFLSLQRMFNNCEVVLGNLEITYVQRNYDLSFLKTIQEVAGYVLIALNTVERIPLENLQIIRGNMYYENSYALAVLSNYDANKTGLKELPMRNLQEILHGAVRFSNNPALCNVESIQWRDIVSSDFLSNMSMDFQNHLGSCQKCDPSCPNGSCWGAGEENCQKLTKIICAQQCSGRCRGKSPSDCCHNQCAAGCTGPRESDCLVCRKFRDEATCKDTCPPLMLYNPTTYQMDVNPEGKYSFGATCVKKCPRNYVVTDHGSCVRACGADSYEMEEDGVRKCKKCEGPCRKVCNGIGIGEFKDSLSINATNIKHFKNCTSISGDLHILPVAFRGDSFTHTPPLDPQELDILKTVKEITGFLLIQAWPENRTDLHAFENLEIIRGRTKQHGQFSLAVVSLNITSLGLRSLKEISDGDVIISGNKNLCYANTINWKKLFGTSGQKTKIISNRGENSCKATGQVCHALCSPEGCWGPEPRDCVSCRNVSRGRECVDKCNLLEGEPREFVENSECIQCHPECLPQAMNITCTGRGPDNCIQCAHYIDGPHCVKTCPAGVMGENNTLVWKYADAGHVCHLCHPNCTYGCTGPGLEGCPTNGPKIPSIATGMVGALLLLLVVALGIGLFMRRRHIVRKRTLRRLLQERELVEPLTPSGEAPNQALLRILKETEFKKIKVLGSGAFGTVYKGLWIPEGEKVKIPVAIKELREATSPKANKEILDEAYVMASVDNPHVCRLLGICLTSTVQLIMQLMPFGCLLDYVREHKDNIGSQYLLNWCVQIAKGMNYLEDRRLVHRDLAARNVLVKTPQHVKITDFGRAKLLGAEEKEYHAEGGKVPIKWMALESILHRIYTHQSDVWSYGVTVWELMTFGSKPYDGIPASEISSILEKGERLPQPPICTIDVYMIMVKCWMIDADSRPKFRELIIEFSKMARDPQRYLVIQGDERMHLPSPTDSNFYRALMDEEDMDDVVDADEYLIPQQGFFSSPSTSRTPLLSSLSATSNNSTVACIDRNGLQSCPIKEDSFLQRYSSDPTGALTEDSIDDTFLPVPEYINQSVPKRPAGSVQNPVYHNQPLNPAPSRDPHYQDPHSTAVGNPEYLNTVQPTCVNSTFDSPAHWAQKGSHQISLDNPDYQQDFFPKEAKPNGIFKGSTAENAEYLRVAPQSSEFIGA
Source text: as §1, §2, §3

JAK3 = target: T3, JAK3 (Homo sapiens, UniProt P52333); experiment: Omnia assay for potency against JAK3; type: biochemical; settings: read-out: JAK3 Inhibition
T3 sequence (P52333 1-1124): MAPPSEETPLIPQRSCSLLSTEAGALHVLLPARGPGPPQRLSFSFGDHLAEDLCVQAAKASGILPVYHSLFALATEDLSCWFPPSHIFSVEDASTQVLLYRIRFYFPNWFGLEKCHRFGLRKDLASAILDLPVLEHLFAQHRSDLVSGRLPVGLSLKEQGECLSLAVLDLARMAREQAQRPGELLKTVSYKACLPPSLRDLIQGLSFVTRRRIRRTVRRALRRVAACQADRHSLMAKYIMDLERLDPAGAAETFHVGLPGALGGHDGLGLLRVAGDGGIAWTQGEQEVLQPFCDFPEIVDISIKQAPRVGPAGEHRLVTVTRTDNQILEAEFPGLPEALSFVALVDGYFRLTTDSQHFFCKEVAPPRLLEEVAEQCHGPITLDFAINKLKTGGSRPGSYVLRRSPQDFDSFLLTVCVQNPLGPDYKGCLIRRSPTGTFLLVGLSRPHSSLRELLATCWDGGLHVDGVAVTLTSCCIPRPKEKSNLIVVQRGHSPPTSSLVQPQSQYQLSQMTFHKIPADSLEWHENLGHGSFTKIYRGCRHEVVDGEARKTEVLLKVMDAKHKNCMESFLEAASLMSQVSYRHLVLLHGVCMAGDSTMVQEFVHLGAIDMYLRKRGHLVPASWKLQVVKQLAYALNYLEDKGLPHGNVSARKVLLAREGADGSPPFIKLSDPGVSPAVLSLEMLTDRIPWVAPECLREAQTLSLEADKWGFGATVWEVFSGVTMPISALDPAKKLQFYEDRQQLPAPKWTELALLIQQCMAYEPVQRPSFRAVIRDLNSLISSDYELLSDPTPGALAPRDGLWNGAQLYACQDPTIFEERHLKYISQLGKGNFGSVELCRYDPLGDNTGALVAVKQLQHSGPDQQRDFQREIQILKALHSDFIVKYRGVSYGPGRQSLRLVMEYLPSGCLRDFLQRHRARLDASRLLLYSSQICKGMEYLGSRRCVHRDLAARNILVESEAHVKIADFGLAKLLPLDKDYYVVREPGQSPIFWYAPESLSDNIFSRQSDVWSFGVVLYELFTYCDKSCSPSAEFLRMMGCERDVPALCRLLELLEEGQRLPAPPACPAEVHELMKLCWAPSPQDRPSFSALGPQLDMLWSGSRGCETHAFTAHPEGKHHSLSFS
Source text: as §1, §2
The Omnia Assay Protocol for potency assessment against JAK3 is performed in a substantially similar manner as that described in Example 25 above except that the modified JAK3-optimized reagent conditions are: • [JAK3]=5 nM, [ATP]=5 μM, [Y12-Sox]=5 μM (ATP KMapp ˜[…]).

ErbB1 = ErbB1 (Homo sapiens, UniProt P00533); experiment: Z'-LYTE biochemical assay, ErbB1 kinase inhibition; settings: @ 1 μM
ErbB1, sequence (P00533 25-1210): as the sequence (P00533 25-1210) above
Description: Compounds of the present invention were assayed as inhibitors of one or more of ErbB1, ErbB2, and/or ErbB4 in a manner substantially similar to the method described by Invitrogen Corp (Invitrogen Corporation, 1600 Faraday Avenue, Carlsbad, Calif., CA; http://www.invitrogen.com/downloads/Z-LYTE_Brochure—1205.pdf) using the Z′-LYTE™ biochemical assay procedure or similar biochemical assay. The Z′-LYTE™ biochemical assay employs a fluorescence-based, coupled-enzyme format and is based on the differential sensitivity of phosphorylated and non-phosphorylated peptides to proteolytic cleavage.

BTK, sequence (Q06187 whole entry): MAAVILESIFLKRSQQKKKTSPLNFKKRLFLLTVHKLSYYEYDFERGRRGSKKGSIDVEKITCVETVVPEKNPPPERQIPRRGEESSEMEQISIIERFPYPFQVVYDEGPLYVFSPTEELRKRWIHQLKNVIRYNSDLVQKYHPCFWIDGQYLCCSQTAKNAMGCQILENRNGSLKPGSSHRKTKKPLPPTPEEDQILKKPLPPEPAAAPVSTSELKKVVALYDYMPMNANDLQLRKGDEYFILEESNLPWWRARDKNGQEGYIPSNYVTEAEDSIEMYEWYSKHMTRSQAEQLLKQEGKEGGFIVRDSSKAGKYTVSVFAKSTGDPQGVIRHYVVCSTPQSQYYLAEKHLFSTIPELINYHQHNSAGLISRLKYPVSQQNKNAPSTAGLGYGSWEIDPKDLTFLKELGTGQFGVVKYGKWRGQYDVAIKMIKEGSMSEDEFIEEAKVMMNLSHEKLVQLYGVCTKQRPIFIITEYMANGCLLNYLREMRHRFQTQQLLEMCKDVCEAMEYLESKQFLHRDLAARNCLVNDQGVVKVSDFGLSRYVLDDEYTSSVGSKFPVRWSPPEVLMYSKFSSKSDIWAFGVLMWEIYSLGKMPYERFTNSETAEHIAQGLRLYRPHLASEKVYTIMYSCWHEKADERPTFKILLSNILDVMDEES

Structure (SMILES) | IC50 (BTK) [µM] | IC50 (EGFR (WT)) [µM] | IC50 (EGFR (T790M/L858R)) [µM] | IC50 (JAK3) [µM] | inhibition at 1 µM (ErbB1) [%]
COc1ccc(NC(=O)/C=C/CN(C)C)cc1Nc1cc(Nc2ccc(F)c(Cl)c2)ncn1 [I-59] | 0.1 to 1 | ≤ 0.01 | ≤ 0.01 | 1 to 10 | 
C#CCN(C)C/C=C/C(=O)Nc1cccc(Nc2cc(Nc3cccc(C)c3)ncn2)c1 [I-58, (E)-N-3-(6-[3-methylphenyl]aminopyrimidin-4-yl)aminophenyl-4-(methyl-prop-2-ynyl)amino-2-butenamide] | 1 to 10 |  | 0.1 to 1 | 0.1 to 1 | 
C=CC(=O)Nc1cccc(Nc2cc(Nc3ccc(Br)cc3F)ncn2)c1 [I-55] | 0.01 to 0.1 | ≤ 0.01 | ≤ 0.01 | 0.01 to 0.1 | 
C#Cc1cccc(Nc2cc(Nc3cccc(Br)c3)ncn2)c1 [I-12, N^4-(3-Bromophenyl)-N^6-(3-ethynylphenyl)pyrimidine-4,6-diamine] | ≥ 10 | 0.01 to 0.1 | ≥ 10 | ≥ 10 | 82
C#Cc1cccc(Nc2cc(Nc3cccc(C#C)c3)ncn2)c1 [I-11, N^4,N^6-bis(3-ethynylphenyl)pyrimidine-4,6-diamine] | ≥ 10 | 0.01 to 0.1 | ≥ 10 | ≥ 10 | 79
CN(C)C/C=C/C(=O)Nc1cccc(Nc2cc(Nc3ccc(OCc4cccc(F)c4)c(Cl)c3)ncn2)c1 [I-46] | 0.1 to 1 | ≤ 0.01 | ≤ 0.01 | 1 to 10 | 
C=CC(=O)Nc1cccc(Nc2cc(Nc3ccccc3)ncn2)c1 [I-67, N-3-[6-(phenylamino)-pyrimidin-4-yl]aminophenylpropenamide] | 0.01 to 0.1 | ≤ 0.01 | ≤ 0.01 | ≤ 0.01 | 

Further lines, results first:

IC50 (BTK) [µM] | IC50 (EGFR (WT)) [µM] | IC50 (EGFR (T790M/L858R)) [µM] | IC50 (JAK3) [µM] | inhibition at 1 µM (ErbB1) [%] | Structure (SMILES)
0.01 to 0.1 | 0.1 to 1 | 0.1 to 1 | ≥ 10 |  | CN(C)C/C=C/C(=O)N(C)c1cccc(Nc2cc(Nc3ccc(F)c(Cl)c3)ncn2)c1 [I-48]
0.01 to 0.1 | ≤ 0.01 | ≤ 0.01 | 0.01 to 0.1 |  | O=C(/C=C/CN1CCCC1)Nc1cccc(Nc2cc(Nc3ccc(F)c(Cl)c3)ncn2)c1 [I-56]
≤ 0.01 | ≤ 0.01 | ≤ 0.01 | ≤ 0.01 |  | O=C(CCl)Nc1cccc(Nc2cc(Nc3ccc(F)c(Cl)c3)ncn2)c1 [I-49, 2-chloro-N-{3-[6-(3-chloro-4-fluorophenylamino)-pyrimidin-4-ylamino]-phenyl}-acetamide]
1 to 10 |  | 0.1 to 1 | ≥ 10 |  | Cc1cccc(Nc2cc(Nc3cccc(NC(=O)/C=C/CN4CCNCC4)c3)ncn2)c1 [I-57, (E)-N-3-(6-[3-methylphenyl]aminopyrimidin-4-yl)aminophenyl-4-piperazinyl-2-butenamide]
≥ 10 | ≤ 0.01 | 1 to 10 | ≥ 10 |  | O=C(Nc1cccc(Nc2cc(Nc3ccc(F)c(Cl)c3)ncn2)c1)C1(C(F)(F)F)CC1 [I-51, N-[3-(6-{3-chloro-4-fluorophenyl}aminopyrimidin-4-yl)aminophenyl]-1-trifluoromethylcyclopropanecarboxamide]
0.1 to 1 | ≤ 0.01 | ≤ 0.01 | 1 to 10 |  | Cc1ccc(NC(=O)/C=C/CN(C)C)cc1Nc1cc(Nc2ccc(F)c(Cl)c2)ncn1 [I-54, (E)-N-[3-(6-{3-Chloro-4-fluorophenyl}amino-pyrimidin-4-ylamino)-4-methylphenyl]-4-(dimethylamino)but-2-enamide]
1 to 10 | 1 to 10 | 0.1 to 1 | 1 to 10 |  | CC(=O)N1CCN(C/C=C/C(=O)Nc2cccc(Nc3cc(Nc4cccc(C)c4)ncn3)c2)CC1 [I-60, (E)-N-3-(6-[3-methylphenylamino]-pyrimidin-4-yl)aminophenyl-4-(4-acetylpiperazin-1yl)-2-butenamide]
≥ 10 | ≤ 0.01 | ≥ 10 | ≥ 10 |  | N#CC1(C(=O)Nc2cccc(Nc3cc(Nc4ccc(F)c(Cl)c4)ncn3)c2)CC1 [I-47, N-[3-(6-{3-chloro-4-fluorophenylamino}pyrimidin-4-yl)amino]phenyl-1-cyanocyclopropanecarboxamide]
0.01 to 0.1 | 0.01 to 0.1 | 0.1 to 1 | 0.1 to 1 |  | C=CC(=O)N(C)c1cccc(Nc2cc(Nc3ccc(F)c(Cl)c3)ncn2)c1 [I-53, N-3-[6-(3-chloro-4-fluorophenylamino)pyrimidin-4-yl]aminophenyl-N-methyl-2-propenamide]
